Assays:
Assay in all cases: Eurofins kinase selectivity profile against 380 other human recombinant kinases (Table S2)
Format in all cases: biochemical
[1] = biological target: T1, 380 human recombinant protein kinases (Homo sapiens, UniProt Q02763); conditions: Tie2 (h), read-out: Inhibition rate (%)
T1 construct: purchased Eurofins (Celle Lévescault)
How it was run: (§1)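 Values come from a contract kinase-profiling service that tested the compound at multiple concentrations across 380 recombinant human kinases, as an off-target check against the MK2 activity.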

[2] = biological target: T2, 380 human recombinant protein kinases (Homo sapiens, UniProt Q9Y2K2); conditions: SIK3(h), read-out: Inhibition rate (%)
T2 construct: purchased Eurofins (Celle Lévescault)
How it was run: as §1

[3] = biological target: T3, 380 human recombinant protein kinases (Homo sapiens, UniProt Q14164); conditions: IKKε(h), read-out: Inhibition rate
T3 construct: purchased Eurofins (Celle Lévescault)
T3 sequence (Q14164 1-716): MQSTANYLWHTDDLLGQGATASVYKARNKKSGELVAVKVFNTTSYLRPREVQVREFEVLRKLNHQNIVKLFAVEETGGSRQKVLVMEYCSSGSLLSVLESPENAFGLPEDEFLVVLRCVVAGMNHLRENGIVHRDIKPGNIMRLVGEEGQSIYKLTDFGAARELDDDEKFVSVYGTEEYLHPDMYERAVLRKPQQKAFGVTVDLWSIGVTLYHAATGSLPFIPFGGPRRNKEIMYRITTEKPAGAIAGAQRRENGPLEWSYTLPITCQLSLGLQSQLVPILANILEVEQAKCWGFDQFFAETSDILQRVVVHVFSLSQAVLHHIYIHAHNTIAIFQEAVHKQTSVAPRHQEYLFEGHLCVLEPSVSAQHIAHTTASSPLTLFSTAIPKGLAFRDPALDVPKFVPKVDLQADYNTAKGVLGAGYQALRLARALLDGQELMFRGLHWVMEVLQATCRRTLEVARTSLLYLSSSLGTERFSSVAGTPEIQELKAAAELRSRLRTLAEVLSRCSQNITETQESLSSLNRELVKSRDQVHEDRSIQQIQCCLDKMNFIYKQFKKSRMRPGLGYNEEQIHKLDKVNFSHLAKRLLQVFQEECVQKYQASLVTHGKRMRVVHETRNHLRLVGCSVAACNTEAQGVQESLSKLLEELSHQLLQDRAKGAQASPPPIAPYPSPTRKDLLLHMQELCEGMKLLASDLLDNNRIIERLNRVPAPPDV
How it was run: as §1

[4] = biological target: T4, 380 human recombinant protein kinases (Homo sapiens, UniProt Q07002); conditions: CDK18/cyclinY(h), read-out: Inhibition rate
T4 construct: purchased Eurofins (Celle Lévescault)
How it was run: as §1

[5] = biological target: T5, 380 human recombinant protein kinases (Homo sapiens, UniProt Q13882); conditions: BRK(h), read-out: Inhibition rate
T5 construct: purchased Eurofins (Celle Lévescault)
How it was run: as §1

[6] = biological target: T6, 380 human recombinant protein kinases (Homo sapiens, UniProt O94768); conditions: DRAK2(h), read-out: Inhibition rate
T6 construct: purchased Eurofins (Celle Lévescault)
T6 sequence (O94768 1-372): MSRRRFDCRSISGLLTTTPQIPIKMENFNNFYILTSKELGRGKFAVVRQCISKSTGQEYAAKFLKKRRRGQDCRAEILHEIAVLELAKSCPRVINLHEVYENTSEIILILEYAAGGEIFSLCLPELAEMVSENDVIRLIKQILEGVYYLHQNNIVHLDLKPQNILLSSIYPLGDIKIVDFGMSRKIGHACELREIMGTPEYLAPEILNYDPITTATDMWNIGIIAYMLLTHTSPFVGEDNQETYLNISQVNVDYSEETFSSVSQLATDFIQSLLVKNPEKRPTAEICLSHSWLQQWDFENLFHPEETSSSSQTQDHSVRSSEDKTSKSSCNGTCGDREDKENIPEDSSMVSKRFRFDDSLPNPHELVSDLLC
How it was run: as §1

[7] = biological target: T7, 380 human recombinant protein kinases (Homo sapiens, UniProt Q8TDR2); conditions: CLIK1(h), read-out: Inhibition rate
T7 construct: purchased Eurofins (Celle Lévescault)
How it was run: as §1

[8] = biological target: T8, 380 human recombinant protein kinases (Homo sapiens, UniProt P04049); conditions: c-RAF(h), read-out: Inhibition rate
T8 construct: purchased Eurofins (Celle Lévescault)
How it was run: as §1

[9] = biological target: T9, 380 human recombinant protein kinases (Homo sapiens, UniProt Q6PHR2); conditions: ULK3(h), read-out: Inhibition rate (%)
T9 construct: purchased Eurofins (Celle Lévescault)
T9 sequence (Q6PHR2 1-472): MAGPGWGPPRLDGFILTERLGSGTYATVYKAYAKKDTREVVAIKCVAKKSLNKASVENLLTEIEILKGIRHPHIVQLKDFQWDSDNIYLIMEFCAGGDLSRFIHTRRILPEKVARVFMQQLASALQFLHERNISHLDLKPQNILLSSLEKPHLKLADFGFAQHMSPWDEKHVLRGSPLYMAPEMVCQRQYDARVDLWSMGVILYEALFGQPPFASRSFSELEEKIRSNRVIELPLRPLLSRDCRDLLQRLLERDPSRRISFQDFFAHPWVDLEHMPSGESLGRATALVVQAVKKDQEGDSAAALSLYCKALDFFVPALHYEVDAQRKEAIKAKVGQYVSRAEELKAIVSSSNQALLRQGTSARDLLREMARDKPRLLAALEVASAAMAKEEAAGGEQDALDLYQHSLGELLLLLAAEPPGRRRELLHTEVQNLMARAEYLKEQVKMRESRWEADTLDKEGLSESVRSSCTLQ
How it was run: as §1

[10] = biological target: T10, 380 human recombinant protein kinases (Homo sapiens, UniProt Q5S007); conditions: LRRK2(h), read-out: Inhibition rate
T10 construct: purchased Eurofins (Celle Lévescault)
How it was run: as §1

T7 sequence (Q8TDR2 whole entry): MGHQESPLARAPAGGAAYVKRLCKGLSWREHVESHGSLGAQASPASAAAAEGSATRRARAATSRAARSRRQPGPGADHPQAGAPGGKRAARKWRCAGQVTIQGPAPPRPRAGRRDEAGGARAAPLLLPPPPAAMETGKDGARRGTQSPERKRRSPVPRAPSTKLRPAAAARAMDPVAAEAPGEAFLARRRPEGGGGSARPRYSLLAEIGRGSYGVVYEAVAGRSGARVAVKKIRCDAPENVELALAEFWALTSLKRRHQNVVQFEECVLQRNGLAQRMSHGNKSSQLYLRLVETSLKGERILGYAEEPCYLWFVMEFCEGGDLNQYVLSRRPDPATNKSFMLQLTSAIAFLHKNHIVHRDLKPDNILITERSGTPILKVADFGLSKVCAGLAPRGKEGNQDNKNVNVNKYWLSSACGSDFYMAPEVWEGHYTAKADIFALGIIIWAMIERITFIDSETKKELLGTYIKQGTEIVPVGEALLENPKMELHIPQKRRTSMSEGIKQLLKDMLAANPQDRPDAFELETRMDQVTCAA
T1 sequence (Q02763 23-1124): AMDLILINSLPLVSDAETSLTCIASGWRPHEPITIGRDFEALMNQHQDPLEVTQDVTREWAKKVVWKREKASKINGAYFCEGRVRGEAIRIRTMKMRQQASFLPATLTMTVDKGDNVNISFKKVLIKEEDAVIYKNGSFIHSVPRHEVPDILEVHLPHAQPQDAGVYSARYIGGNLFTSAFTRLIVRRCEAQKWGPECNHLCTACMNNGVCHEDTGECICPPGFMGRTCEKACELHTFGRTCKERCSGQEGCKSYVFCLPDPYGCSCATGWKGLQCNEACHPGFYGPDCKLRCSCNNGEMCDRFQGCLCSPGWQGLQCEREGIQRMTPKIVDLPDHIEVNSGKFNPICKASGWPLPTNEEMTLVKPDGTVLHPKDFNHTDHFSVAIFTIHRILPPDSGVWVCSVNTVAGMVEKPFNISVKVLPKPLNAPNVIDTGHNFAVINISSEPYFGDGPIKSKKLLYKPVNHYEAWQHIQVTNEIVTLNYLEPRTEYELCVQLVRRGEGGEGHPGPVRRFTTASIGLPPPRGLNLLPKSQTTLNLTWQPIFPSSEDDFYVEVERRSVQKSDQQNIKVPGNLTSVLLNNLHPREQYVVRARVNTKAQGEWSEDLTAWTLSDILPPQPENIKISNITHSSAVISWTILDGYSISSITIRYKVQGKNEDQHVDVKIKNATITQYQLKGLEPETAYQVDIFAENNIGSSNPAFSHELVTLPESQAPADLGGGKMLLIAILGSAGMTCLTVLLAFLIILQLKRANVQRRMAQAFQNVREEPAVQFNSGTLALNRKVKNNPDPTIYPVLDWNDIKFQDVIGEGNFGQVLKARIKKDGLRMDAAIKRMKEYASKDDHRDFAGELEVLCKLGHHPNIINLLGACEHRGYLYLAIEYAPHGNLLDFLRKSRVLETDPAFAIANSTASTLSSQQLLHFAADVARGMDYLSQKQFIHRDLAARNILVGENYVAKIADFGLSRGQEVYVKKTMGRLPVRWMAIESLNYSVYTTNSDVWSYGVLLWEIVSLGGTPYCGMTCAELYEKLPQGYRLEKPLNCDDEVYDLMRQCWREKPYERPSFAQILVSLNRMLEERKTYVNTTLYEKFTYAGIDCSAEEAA
T2 sequence (Q9Y2K2 whole entry): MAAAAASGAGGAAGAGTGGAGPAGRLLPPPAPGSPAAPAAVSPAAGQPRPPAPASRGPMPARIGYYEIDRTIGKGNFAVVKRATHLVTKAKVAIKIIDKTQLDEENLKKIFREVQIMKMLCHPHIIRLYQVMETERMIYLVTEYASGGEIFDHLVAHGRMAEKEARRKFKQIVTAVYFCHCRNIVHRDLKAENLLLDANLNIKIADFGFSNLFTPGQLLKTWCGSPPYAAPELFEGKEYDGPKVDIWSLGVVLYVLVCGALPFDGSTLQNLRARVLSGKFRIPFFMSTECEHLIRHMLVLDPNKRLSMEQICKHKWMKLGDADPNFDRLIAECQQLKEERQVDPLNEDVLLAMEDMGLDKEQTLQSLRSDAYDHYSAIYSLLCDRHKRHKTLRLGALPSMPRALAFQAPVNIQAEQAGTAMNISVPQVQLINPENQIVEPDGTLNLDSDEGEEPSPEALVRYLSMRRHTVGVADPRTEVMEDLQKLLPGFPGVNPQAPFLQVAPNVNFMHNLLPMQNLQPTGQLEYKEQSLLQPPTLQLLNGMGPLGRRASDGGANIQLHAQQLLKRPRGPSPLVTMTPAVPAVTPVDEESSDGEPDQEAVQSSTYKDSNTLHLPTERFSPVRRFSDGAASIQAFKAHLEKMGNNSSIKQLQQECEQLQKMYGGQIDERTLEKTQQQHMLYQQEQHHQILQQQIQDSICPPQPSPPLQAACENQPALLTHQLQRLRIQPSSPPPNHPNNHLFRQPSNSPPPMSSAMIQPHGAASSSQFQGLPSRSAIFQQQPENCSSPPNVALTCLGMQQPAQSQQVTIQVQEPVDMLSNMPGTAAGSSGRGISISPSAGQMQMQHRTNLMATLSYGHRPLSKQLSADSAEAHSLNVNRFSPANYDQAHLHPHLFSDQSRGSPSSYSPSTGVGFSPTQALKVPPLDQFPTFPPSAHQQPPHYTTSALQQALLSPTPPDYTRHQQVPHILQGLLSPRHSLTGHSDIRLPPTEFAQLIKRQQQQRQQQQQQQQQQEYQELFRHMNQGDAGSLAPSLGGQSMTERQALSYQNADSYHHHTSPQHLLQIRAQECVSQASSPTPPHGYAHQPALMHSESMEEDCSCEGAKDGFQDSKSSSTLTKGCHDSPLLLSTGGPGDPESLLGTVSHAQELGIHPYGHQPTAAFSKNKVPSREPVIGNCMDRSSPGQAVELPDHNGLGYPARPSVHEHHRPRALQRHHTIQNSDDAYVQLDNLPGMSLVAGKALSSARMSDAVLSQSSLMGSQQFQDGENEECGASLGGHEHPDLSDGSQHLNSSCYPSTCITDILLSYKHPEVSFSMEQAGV
T4 sequence (Q07002 whole entry): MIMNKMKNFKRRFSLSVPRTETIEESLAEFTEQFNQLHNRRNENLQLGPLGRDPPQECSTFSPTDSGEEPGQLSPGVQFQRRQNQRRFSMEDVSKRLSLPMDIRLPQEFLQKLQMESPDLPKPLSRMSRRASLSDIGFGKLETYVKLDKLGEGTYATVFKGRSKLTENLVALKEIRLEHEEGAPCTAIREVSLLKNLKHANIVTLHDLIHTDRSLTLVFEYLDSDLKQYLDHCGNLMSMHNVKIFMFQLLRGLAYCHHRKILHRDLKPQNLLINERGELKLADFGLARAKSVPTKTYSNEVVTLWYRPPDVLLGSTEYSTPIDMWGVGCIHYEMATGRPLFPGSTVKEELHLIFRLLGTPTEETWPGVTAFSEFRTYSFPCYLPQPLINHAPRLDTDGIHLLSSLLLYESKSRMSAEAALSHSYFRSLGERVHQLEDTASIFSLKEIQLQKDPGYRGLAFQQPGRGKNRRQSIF
T8 sequence (P04049 whole entry): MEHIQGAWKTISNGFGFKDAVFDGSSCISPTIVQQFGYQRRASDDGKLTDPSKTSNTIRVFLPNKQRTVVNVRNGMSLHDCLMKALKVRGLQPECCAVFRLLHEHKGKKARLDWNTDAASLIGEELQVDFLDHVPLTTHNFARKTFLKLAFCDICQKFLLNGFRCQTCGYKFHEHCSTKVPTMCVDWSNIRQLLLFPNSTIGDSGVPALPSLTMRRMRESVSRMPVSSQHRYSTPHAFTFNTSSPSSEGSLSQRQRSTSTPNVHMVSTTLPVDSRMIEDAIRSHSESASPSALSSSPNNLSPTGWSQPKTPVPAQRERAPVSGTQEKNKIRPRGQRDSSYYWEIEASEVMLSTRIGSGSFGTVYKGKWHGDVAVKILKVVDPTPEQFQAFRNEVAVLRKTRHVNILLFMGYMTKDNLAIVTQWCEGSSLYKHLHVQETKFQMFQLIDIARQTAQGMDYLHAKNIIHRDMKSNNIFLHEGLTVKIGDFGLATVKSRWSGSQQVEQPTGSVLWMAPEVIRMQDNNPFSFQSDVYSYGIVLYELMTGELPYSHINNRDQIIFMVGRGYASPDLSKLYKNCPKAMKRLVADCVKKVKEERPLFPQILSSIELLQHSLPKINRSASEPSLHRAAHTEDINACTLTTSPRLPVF
T5 sequence (Q13882 whole entry): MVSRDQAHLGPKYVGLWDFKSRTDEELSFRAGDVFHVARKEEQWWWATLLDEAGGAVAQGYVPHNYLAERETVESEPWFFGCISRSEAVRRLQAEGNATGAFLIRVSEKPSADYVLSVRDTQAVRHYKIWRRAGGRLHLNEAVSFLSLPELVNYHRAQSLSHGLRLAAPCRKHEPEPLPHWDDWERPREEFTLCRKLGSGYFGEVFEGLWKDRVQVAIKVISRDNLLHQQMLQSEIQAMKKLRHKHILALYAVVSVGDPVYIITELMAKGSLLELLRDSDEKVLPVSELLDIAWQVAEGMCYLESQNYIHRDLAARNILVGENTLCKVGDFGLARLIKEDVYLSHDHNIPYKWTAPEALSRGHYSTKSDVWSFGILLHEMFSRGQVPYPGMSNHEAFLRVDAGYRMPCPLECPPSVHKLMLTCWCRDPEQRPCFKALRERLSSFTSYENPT

SMILES: C=CC(=O)Nc1cc(-c2cc(-c3cc4c([nH]3)CCNC4=O)ccn2)ccc1OC(F)(F)F [compound 11]
- inhibition at 0.01 µM ([1]; 10 nM): 0%
- inhibition at 0.1 µM ([1]; 100 nM): 10%
- inhibition at 1 µM ([1]; 1000 nM): 24%
- inhibition at 0.01 µM ([2]; 10 nM): 6%
- inhibition at 0.1 µM ([2]; 100 nM): 1%
- inhibition at 1 µM ([2]; 1000 nM): 12%
- inhibition at 0.01 µM ([3]; 10 nM): -2%
- inhibition at 0.1 µM ([3]; 100 nM): -1%
- inhibition at 1 µM ([3]; 1000 nM): 5%
- inhibition at 0.01 µM ([4]; 10 nM): -5%
- inhibition at 0.1 µM ([4]; 100 nM): 2%
- inhibition at 1 µM ([4]; 1000 nM): -3%
- inhibition at 0.01 µM ([5]; 10 nM): 0%
- inhibition at 0.1 µM ([5]; 100 nM): -5%
- inhibition at 1 µM ([5]; 1000 nM): -7%
- inhibition at 0.01 µM ([6]; 10 nM): 28%
- inhibition at 0.1 µM ([6]; 100 nM): 80%
- inhibition at 1 µM ([6]; 1000 nM): 93%
- inhibition at 0.01 µM ([7]; 10 nM): 5%
- inhibition at 0.1 µM ([7]; 100 nM): 33%
- inhibition at 1 µM ([7]; 1000 nM): 65%
- inhibition at 0.01 µM ([8]; 10 nM): -1%
- inhibition at 0.1 µM ([8]; 100 nM): 2%
- inhibition at 1 µM ([8]; 1000 nM): 1%
- inhibition at 0.01 µM ([9]; 10 nM): 8%
- inhibition at 0.1 µM ([9]; 100 nM): 3%
- inhibition at 1 µM ([9]; 1000 nM): -4%
- inhibition at 0.01 µM ([10]; 10 nM): -4%
- inhibition at 0.1 µM ([10]; 100 nM): 17%
- inhibition at 1 µM ([10]; 1000 nM): 74%
